The record followed here is patent US11453700B2, “Peptide having activities of skin whitening and uses thereof” (CAREGEN CO., LTD., priority 2019, dated 2022).

One experiment concerns B16F10 cells. Briefly: Inhibitory effect on melanin production in α-MSH-stimulated B16F10 cells. The settings on record: 200 ng/mL α-MSH, peptide 10, 50, 100 or 200 μM, 72 hours, FIG. 1. It counts as cell-based, mouse. On the procedure: A mouse melanoma cell B16F10 was seeded in a 6-well plate at a density of 5×10^4 cells/well, followed by incubation for 16 hours. Thereafter, the culture medium was replaced by a medium supplemented with 2% (v/v) serum, and then 200 ng/mL of α-melanocyte-stimulating hormones (α-MSH) was added thereto to stimulate melanin production, together with each peptide of an amino acid sequence of SEQ ID NO: 1, at a concentration of 10 μM, 50 μM, 100 μM, or 200 μM, respectively, followed by incubation for 72 hours. Thereafter, the incubated cells were dissolved in 1 N NaOH, and absorbance at 450 nm was measured. In addition, an untreated group (Con) was used as a control, and only an α-MSH-treated group as a negative control and 200 μM or 500 μM of arbutin-, which is a known skin-whitening agent, and α-MSH-treated group as a positive control were used.
From absorbance at 450 nm, the content of melanin (%) produced by B16F10 cells was determined.

Experiment [1] deals with Rab27a. As to the kind of experiment: Expression of melanin production-associated proteins (immunoblotting), Rab27a. It counts as cell-based, mouse. Particulars: B16F10 cells, 200 ng/mL α-MSH, peptide 1-160 μM, 72 hours, FIG. 4. How it is done:
(§1) In detail, a mouse melanoma cell B16F10 was seeded in a 6-well plate at a density of 5×10^4 cells/well, followed by incubation for 16 hours. Thereafter, the culture medium was replaced by a medium supplemented with 2% (v/v) serum, and then 200 ng/mL of α-MSH was added thereto. Together therewith, the peptide composed of the amino acid sequence of SEQ ID NO: 1 was added at a concentration of 1 μM, 10 μM, 20 μM, 40 μM, 60 μM, 80 μM or 160 μM, respectively, followed by incubation for 72 hours. Thereafter, the cultured cells were lysed, and then subjected to immunoblotting using antibodies (all available from santacruz biotechnology, USA) against Mlph, Rab27a, tyrosinase (TYR), or MITF. In addition, a control, a negative control, and a positive control were used in the same manner as in Example 2.(1).
A general note: A western blot detects proteins with antibodies after separation by electrophoresis.

Experiment [2] deals with MITF. Briefly: Expression of melanin production-associated genes (RT-PCR), MITF. It counts as cell-based, mouse. Particulars: B16F10 cells, 200 ng/mL α-MSH, peptide 1-160 μM, 72 hours, FIG. 3. On the procedure:
(§2) In detail, a mouse melanoma cell B16F10 was seeded in a 6-well plate at a density of 5×10^4 cells/well, followed by incubation for 16 hours. Thereafter, the culture medium was replaced by a medium supplemented with 2% (v/v) serum, and then 200 ng/mL of α-MSH was added thereto. Together therewith, the peptide composed of the amino acid sequence of SEQ ID NO: 1 was added at a concentration of 1 μM, 10 μM, 20 μM, 40 μM, 60 μM, 80 μM or 160 μM, respectively, followed by incubation for 72 hours. mRNAs were extracted from the cultured cells, and the extracted mRNAs were reverse transcribed using a cDNA synthesis kit & PCR pre-mix (Intron, Korea), thereby synthesizing cDNA, respectively. Thereafter, a polymerase chain reaction (PCR) was carried out using each cDNA and Rab27a, Melanophilin (Mlph), myosin VA, MITF, tyrosinase, or TRP1 primer pairs. Moreover, a control, a negative control, and a positive control were used in the same manner as in Example 2.(1), and nucleotide sequences of the primers used herein are as in Table 3 below.

The next experiment has as its system Melanophilin (Mlph). As to the kind of experiment: Expression of melanin production-associated genes (RT-PCR), Mlph. In kind it is cell-based, mouse. Particulars: B16F10 cells, 200 ng/mL α-MSH, peptide 1-160 μM, 72 hours, FIG. 3. On the procedure: as §2
The next experiment relates to Mlph. Briefly: Expression of melanin production-associated proteins (immunoblotting), Mlph. It counts as cell-based, mouse. The settings on record: B16F10 cells, 200 ng/mL α-MSH, peptide 1-160 μM, 72 hours, FIG. 4. On the procedure:
as §1

Another experiment concerns tyrosinase (TYR). Briefly: Expression of melanin production-associated proteins (immunoblotting), TYR. In kind it is cell-based, mouse. The settings on record: B16F10 cells, 200 ng/mL α-MSH, peptide 1-160 μM, 72 hours, FIG. 4. On the procedure: as §1
For a further experiment, the system named is myosin VA. As to the kind of experiment: Expression of melanin production-associated genes (RT-PCR), myosin VA. In kind it is cell-based, mouse. The settings on record: B16F10 cells, 200 ng/mL α-MSH, peptide 1-160 μM, 72 hours, FIG. 3. On the procedure: as §2
Experiment [3] concerns Rab27a. As to the kind of experiment: Expression of melanin production-associated genes (RT-PCR), Rab27a. It counts as cell-based, mouse. Particulars: B16F10 cells, 200 ng/mL α-MSH, peptide 1-160 μM, 72 hours, FIG. 3. On the procedure:
as §2

Experiment [4] concerns the target T1, tyrosinase (Mus musculus, UniProt P11344).
T1 construct: the cells were lysed by adding 0.1 M sodium phosphate buffer (pH 6.8, lysis buffer) containing 1% (v/v) triton X-100; endogenous in cells; host or cells: B16F10 mouse melanoma cells, stimulated with alpha-MSH
T1 sequence (P11344 19-533): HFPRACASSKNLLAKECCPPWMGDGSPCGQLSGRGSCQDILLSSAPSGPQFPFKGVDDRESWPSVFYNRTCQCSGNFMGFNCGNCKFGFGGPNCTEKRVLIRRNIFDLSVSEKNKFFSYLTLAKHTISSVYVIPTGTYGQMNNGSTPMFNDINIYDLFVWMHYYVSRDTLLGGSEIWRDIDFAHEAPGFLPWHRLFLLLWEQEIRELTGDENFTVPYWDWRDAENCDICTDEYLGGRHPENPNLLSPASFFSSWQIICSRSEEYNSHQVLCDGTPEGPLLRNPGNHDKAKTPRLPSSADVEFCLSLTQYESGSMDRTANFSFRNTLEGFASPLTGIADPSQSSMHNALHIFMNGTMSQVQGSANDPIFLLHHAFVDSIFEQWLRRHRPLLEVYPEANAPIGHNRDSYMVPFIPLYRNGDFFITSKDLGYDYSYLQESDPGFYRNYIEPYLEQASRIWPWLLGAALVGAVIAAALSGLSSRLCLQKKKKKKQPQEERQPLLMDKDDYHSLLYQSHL
As to the kind of experiment: Inhibitory effect on tyrosinase activity in α-MSH-stimulated B16F10 cells (L-DOPA, cell lysate). In kind it is cell-based. The settings on record: 200 ng/mL α-MSH, peptide 1-160 μM, 72 hours, FIG. 2. How it is done: In detail, a mouse melanoma cell B16F10 was seeded in a 6-well plate at a density of 5×10^4 cells/well, followed by incubation for 16 hours. Thereafter, the culture medium was replaced by a medium supplemented with 2% (v/v) serum, and then 200 ng/mL of α-MSH was added thereto. Together therewith, the peptide composed of the amino acid sequence of SEQ ID NO: 1 was added at a concentration of 1 μM, 10 μM, 20 μM, 40 μM, 60 μM, 80 μM or 160 μM, respectively, followed by incubation for 72 hours. The 6-well plate was placed on ice, and then washed with cold PBS twice. Thereafter, the cells were lysed by adding 0.1 M sodium phosphate buffer (pH 6.8, lysis buffer) containing 1% (v/v) triton X-100. Thereafter, the cells in the well plate were scraped using a scraper, and collected in a 1.5 mL tube. The collected cells were vortexed, and centrifuged at 15,000 rpm for 10 minutes to obtain a supernatant. Thereafter, proteins in the supernatant were quantified to adjust the protein content at a predetermined amount. A buffer was added thereto, and 90 μL total of the sample was dispensed in a 96-well plate.
Thereafter, 20 μL of 10 mM L-DOPA was added to each sample, and incubated at 37° C. for 1 hour. Then, absorbance at 475 nm was measured. […] From absorbance at […], the tyrosinase activity (fold) was determined.

Experiment [5] concerns tyrosinase. Briefly: Expression of melanin production-associated genes (RT-PCR), tyrosinase. In kind it is cell-based, mouse. The settings on record: B16F10 cells, 200 ng/mL α-MSH, peptide 1-160 μM, 72 hours, FIG. 3. On the procedure: as §2
Experiment [6] concerns MITF. As to the kind of experiment: Expression of melanin production-associated proteins (immunoblotting), MITF. It counts as cell-based, mouse. Particulars: B16F10 cells, 200 ng/mL α-MSH, peptide 1-160 μM, 72 hours, FIG. 4. How it is done:
as §1

For the next experiment, the system named is TRP1. Briefly: Expression of melanin production-associated genes (RT-PCR), TRP1. In kind it is cell-based, mouse. Particulars: B16F10 cells, 200 ng/mL α-MSH, peptide 1-160 μM, 72 hours, FIG. 3. On the procedure: as §2

For PNRYP [SEQ ID NO: 1], the melanin production result in the experiment with B16F10 cells is recorded as “reduced in a concentration-dependent manner”. Besides, the “expression of Rab27a protein” value in the experiment with Rab27a [1] was “inhibited”. Also, the “expression of MITF gene” value in the experiment on MITF [2] is on record as “inhibited”. Further, the “expression of Mlph gene” value with Melanophilin (Mlph) is reported as “inhibited”. Moreover, the “expression of Mlph protein” value with Mlph is given as “inhibited”. The “expression of TYR protein” value in the experiment with tyrosinase (TYR) is given as “inhibited”. Also, the “expression of myosin VA gene” value in the experiment on myosin VA was “inhibited”. Also, the “expression of Rab27a gene” value with Rab27a [3] is on record as “inhibited”. Also, the tyrosinase activity result with tyrosinase [4] was “inhibited”. For the same substance, the “expression of tyrosinase gene” value in the experiment on tyrosinase [5] is reported as “inhibited”. In the experiment on MITF [6], the “expression of MITF protein” value is on record as “inhibited”. The “expression of TRP1 gene” value in the experiment with TRP1 was “inhibited”.
